Legend:
[1] = system: sheep blood; assay type: cell-based
Description: In order to evaluate the presence or absence of hemolysis of lactic-acid bacteria in relation to safety of probiotics, K2, K6 and K8 strains were inoculated into a tryptic soybean agar (TSA, Difco Laboratories, USA) containing 5% sheep blood, and were then cultured at 37° C. for about 24 to 48 hr.

[2] = Bile salt hydrolase (BSH) activity on MRS agar with 0.5% sodium taurocholic acid; conditions: MRS agar with 0.5% (w/v) TDCA, anaerobic, 37° C., about 72 hr
Description: In order to confirm the presence or absence of bile salt hydrolase (BSH) activity as the function of each of the lactic-acid bacteria, an experiment was performed in accordance with the method described in Dashkevicz and Feighner (1989). Briefly, an agar medium was prepared by adding 0.5% (w/v) sodium taurocholic acid (TDCA, Sigma-Aldrich, Germany) to MRS.

[3] = Ability to produce hydrogen peroxide (tetramethylbenzidine MRS agar); conditions: anaerobic, 37° C., about 48-72 hr, color change after exposure to air
Description: For the ability to produce hydrogen peroxide as the function of each of the lactic-acid bacteria, an agar medium was prepared by adding 0.25 mg/ml of tetramethylbenzidine (Sigma-Aldrich, Germany) and […] to MRS (McGroarty et al., 1992). Here, the additives were added at about 50° C. after autoclaving of the MRS agar. Each of the lactic-acid bacteria was inoculated into the completely hardened test agar medium, placed in an anaerobic jar, and cultured at 37° C. for about 48-72 hr. After culture, the lactic-acid bacteria were taken out of the anaerobic jar and exposed to air, and the colony and the surrounding color change were observed.

[4] = ABTS radical-scavenging experiment with lactic-acid bacteria lysate; assay type: biochemical; conditions: for ABTS radical-scavenging activity: lactic-acid bacteria lysate, dark reaction 10 min, 734 nm; for antioxidant activity, ranking among strains: lysate, at 10 mg and above
Description: In order to evaluate the antioxidant activity of each of the lactic-acid bacteria strains, a radical-scavenging experiment was conducted using 2,2′-azino-bis(3-ethylbenzthiazoline-6-sulfonic acid) (ABTS, Sigma-Aldrich, Germany). Briefly, lactic-acid bacteria were cultured for about 24 hr, allowed to react with lysozyme (Sigma-Aldrich, Germany) for 2 hr at 37° C., and lysed through sonication to obtain each lactic-acid bacteria lysate. The solid content thereof was measured using a water content analyzer, and a stock solution was adjusted to a concentration of 50 mg/ml. To prepare ABTS, 14 mM ABTS stock solution and 4.9 mM potassium persulfate were mixed at a volume ratio of 1:1, followed by dark reaction overnight so that the resulting mixture turned blue-green. A working solution obtained by diluting the corresponding solution until an absorbance OD-734 reached about 0.7 was added with 10% of each lactic-acid bacteria lysate sample, followed by dark reaction for 10 min, after which the absorbance at a wavelength of 734 nm was measured, and each measured value was substituted into the following equation. ABTS radical-scavenging activity (%)={1−(ODsample/ODcontrol)}×100

[5] = system: Candida albicans KCTC7678 (CA); experiment: Growth inhibition by cell-free culture supernatant (CFCS); assay type: cell-based; conditions: CFCS at 1× concentration, culture for 24 hr, OD600
Description: (§1) In order to measure the activity of the lactic-acid bacteria culture solution on inhibiting the growth of vaginitis pathogens, a 10-fold-concentrated cell-free culture supernatant (CFCS) was prepared. The culture solution of each of K2, K6 and K8 lactic-acid bacteria was centrifuged at 4,000 rpm for 25 min, thereby separating the cells of the lactic-acid bacteria and the culture supernatant from each other. The culture supernatant was filtered using a 0.2 μm pore syringe filter (Sartorius, Germany). The filtered culture supernatant was lyophilized and suspended in 1×PBS to afford a solution concentrated 10-fold compared to the volume of the initial culture solution. CA was inoculated at a concentration of 1×10^5 CFU/ml and GV was inoculated at a concentration of 1×10^6 CFU/ml under individual culture conditions. The CFCS of lactic-acid bacteria was added in a volume corresponding to 0.1 times the final volume to the vaginitis-pathogen-inoculated solution so as to reach 1×, and the test group not added with CFCS was used as a control. The mixed composition was cultured for 24 hr for CA and 48 hr for GV under individual vaginitis-pathogen culture conditions, and the absorbance was measured at a wavelength of OD600. Based on the measured absorbance, growth inhibition was determined using the following cytotoxicity calculation equation. In this equation, ODcontrol represents the absorbance of the control, and ODcfcs represents the absorbance of the CFCS-added group. Growth inhibition (%)=(ODcontrol−ODcfcs)/ODcontrol×100

[6] = system: Gardnerella vaginalis KCTC5096 (GV); experiment: as above; assay type: cell-based; conditions: CFCS at 1× concentration, culture for 48 hr, OD600
Description: as §1

[7] = system: Candida albicans KCTC7678 (CA); experiment: Coaggregation of lactic-acid bacteria on vaginitis pathogen; assay type: cell-based; conditions: at 8 hr
Description: (§2) Briefly, lactic-acid bacteria and vaginitis pathogens were centrifuged at 13,000 rpm for 5 min and the supernatant was decanted, after which the precipitated microorganism cells were washed using 1×PBS. After washing was repeated twice, the microorganisms were each suspended using 1×PBS until an absorbance OD600 of 1.0 was obtained. The lactic-acid bacteria suspension and the vaginitis pathogens were mixed at the same volume ratio, homogenized through vortexing, and allowed to stand, after which the supernatant of the mixed solution was carefully obtained at 1, 4, and 8 hr, and the absorbance thereof was measured. The suspension without mixing the microorganisms was used as a control. Based on the measured absorbance, coaggregation was calculated using the following equation. Here, ODpatho represents the absorbance of the vaginitis pathogen, ODLAB represents the absorbance of the lactic-acid bacteria, and ODmix represents the absorbance of the mixed solution of microorganisms. Coaggregation (%)={(ODpatho+ODLAB)/2−ODmix}/(ODpatho+ODLAB)/2

[8] = system: Gardnerella vaginalis KCTC5096 (GV); experiment: as above; assay type: cell-based; conditions: time given only for CA (8 hr)
Description: as §2

Row | Substance | hemolysis and clear zones [1] | bile salt hydrolase (BSH) activity [2] | ability to produce hydrogen peroxide [3] | ABTS radical-scavenging activity [4] | growth inhibition of CA [5] [%] | growth inhibition of GV [6] [%] | coaggregation with CA [7] [%] | coaggregation with GV [8] [%] | antioxidant activity, ranking among strains [4]
1 | Lactobacillus plantarum ATG-K2 [Lb. plantarum ATG-K2] | not observed | exhibited BSH activity | produced hydrogen peroxide | exhibited radical-scavenging activity | 87.05 | 37.49 | 70.73 | 32.72 | –
2 | Lactobacillus plantarum ATG-K6 [Lb. plantarum ATG-K6] | not observed | exhibited BSH activity | produced hydrogen peroxide | exhibited radical-scavenging activity | 82.11 | 28.25 | 58.57 | 30.39 | greatest effect
3 | Lactobacillus plantarum ATG-K8 [Lb. plantarum ATG-K8] | not observed | exhibited BSH activity | produced hydrogen peroxide | exhibited radical-scavenging activity | 81.34 | 44.60 | 57.88 | 20.45 | next-greatest antioxidant activity

Reference: patent US12157882B2, “Lactobacillus plantarum strain ATG-K2, ATG-K6 or ATG-K8, and composition for preventing or treating vaginitis comprising same” (ATOGEN CO., LTD, priority 2018, dated 2024)
